Measurements published in patent publication US4459294A, “Phosphoric and thiophosphoric esters of 5(3)-hydroxypyrazoles exerting an insecticidal action” (priority 1977, dated 1984).

Experiments:
Pieris brassicae = assay: Biological activity on Pieris brassicae (Lepitoptera), 5-day old larvae; type: in vivo; conditions: 0.1 permill.; 48 hours after treatment
Description: Biological activity on Pieris brassicae (Lepitoptera)
Cut cauliflower leaves were sprinkled with an aqueous dispersion of the products under examination. After drying, the leaves were infested with 5-day old larvae. The percentage death rate of the larvae (untreated leaves=0) was determined 48 hours after treatment.

Spodoptera littoralis = assay: Biological activity on Spodoptera littoralis (Lepidoptera), 5-days old larvae; type: in vivo; conditions: 0.1 permill.; 48 hours after treatment
Description: Biological activity on Spodoptera littoralis (Lepidoptera)
Cut tobacco leaves were sprinkled with an aqueous dispersion of the products under examination. After drying, the leaves were infested with 5-days old larvae. The percentage mortality of the larvae was determined 48 hours after treatment (untreated leaves, mortality=0).

Culex pipiens larvae = assay: Biological activity on Culex pipiens (diptera) larvae; type: in vivo; conditions: 24 hours after treatment, read-out: percentage of reduction of the infestation (percentage death rate), Culex larvae
Description: Biological activity on Culex pipiens (diptera) larvae
Into glasses containing an aqueous dispersion of the products under examination, were introduced third and fourth age mosquito larvae. The percentage death rate of the larvae (glasses containing pure water=0) was determined 24 hours after treatment.

Culex pipiens adults = assay: Biological activity on Culex pipiens (Diptera): adults; type: in vivo; conditions: 0.2 g/m^2, 24 hours after beginning of treatment, read-out: percentage of reduction of the infestation (mortality percentage), Culex ad.
Description: Biological activity on Culex pipiens (Diptera): adults
Whatman n°1 paper rectangles were treated uniformly with an acetonic solution of the products under examination. After evaporation of the solvent, each treated paper rectangle was used to line the inside wall of a perspex cylinder (model OMS). The paper-lined perspex cylinder was then closed with a net after having introduced into it 2-3 days old adult females. After one hour from the start of the contact, the insects were transferred into a similar cylinder likewise lined with untreated paper, and were fed with a sugary solution.
The mortality percentage (untreated insects=0) was determined 24 hours after the beginning of the treatment.

Musca domestica = assay: Biological activity on Musca domestica (Diptera), topical application; type: in vivo; conditions: 0.5 γ/ins, 24 hours after treatment
Description: Biological activity on Musca domestica (Diptera)
4-days old adults were treated, by topical application by microsyringe, with an acetonic solution of the products under examination.
The mortality percentage (insects treated with acetone only=0) was determined 24 hours after the treatment.

[1] = test system: Leptinatarsa decomlineata; assay: Biological activity on Leptinatarsa decomlineata (Coledptera), 4-day old larvae; type: in vivo; conditions: 0.1 permill.; 48 hours after treatment
Description: Biological activity on Leptinatarsa decomlineata (Coledptera)
Small, pot-grown potato-plants were infested with 4-day old larvae, and then were sprinkled with an aqueous dispersion of the products under examination. The percentage death rate (untreated plants=0) was determined 48 hours after treatment.

Macrosiphum euphorbiae = assay: Biological activity on Macrosiphum euphorbiae (aphides); type: in vivo; parameters: tested at 0.01 permill; conditions: 0.01 permill.; 24 hours after treatment
Description: Biological activity on Macrosiphum euphorbiae (aphides)
Small potato plants grown in pots were infested with adult female aphides and, after several hours, were sprinkled with an aqueous dispersion of the products under examination.
The percentage death rate was determined 24 hours after treatment (untreated plants=0).

Tetranychus urticae = assay: Biological activity on Tetranychus urticae (Acari) adults; type: in vivo; conditions: 0.01 permill.; 24 hours after treatment
Description: Biological Activity on Tetranychus urticae (Acari) adults
Small bean leaf discs were infected with adult acari and were then sprinkled with an aqueous dispersion of the products under examination. The percentage of mortality was determined 24 hours after the treatment (untreated discs, mortality=0).

Meloidogyne incognita = assay: Biological activity on Meloidogyne incognita (Nematoda); type: in vivo; conditions: 20 ppm; 21 days after transplanting
Description: Biological activity on Meloidogyne incognita (Nematoda)
Aliquot parts of a 1:1 mixture of field soil and sand, infested by Nematoda larvae and eggs, were treated by uniformly mixing same with an aqueous dispersion of the products under examination. The soil was then distributed into plastic pots, and after 5 days into each pot there were transplanted 5 tomato plants about 20 cm high. The survey of the results was carried out 21 days after the transplanting, by observing the roots of the plants extracted from the soil in order to ascertain the degree of infestation by counting the galls that have formed on them. The nematocide activity was expressed as a percentage of reduction of the infestation with respect to the witness plant (small plants transplanted into untreated soil, activity=0).

Blatta orientalis = assay: Biological activity on Blatta orientalis (Ortoptera); type: in vivo; conditions: 0.1 g/m^2, 48 hours after start of treatment, read-out: percentage of reduction of the infestation (percentage mortality), Blatta
Description: Biological activity on Blatta orientalis (Ortoptera)
The bottom and side walls of glass beakers were treated uniformly with an acetonic solution of the products under examination. After evaporation of the solvent in each beaker, into the same were then introduced ten, 80-100 days old neanides, whereafter they were closed with a lid of metal netting. After 24 hours from the beginning of the treatment, the insects were transferred into untreated glass beakers, and suitably nourished. The percentage mortality (untreated insects=0) was determined 48 hours after the start of the treatment.

Toxicity by os on rats = conditions: rat, in vivo, po
[2] = test system: insects, acari and nematoda; assay: Pesticidal activity against insects, acari and nematoda (general statements); type: in vivo
Description: The pesticidal activity, verified by the methods described below in Example 12, is recorded below in the following Table 3 in comparison with that of "Pyrazothion".

| SMILES | percentage of reduction of the infestation (percentage death rate of larvae), Pieris B (Pieris brassicae) [%] | percentage of reduction of the infestation (percentage mortality of larvae), Spodoptera L (Spodoptera littoralis) [%] | mortality at 0.2 ppm (Culex pipiens larvae) [%] | mortality at 0.2 g/m2 (Culex pipiens adults) [%] | percentage of reduction of the infestation (mortality percentage), Musca d. (Musca domestica) [%] | percentage of reduction of the infestation (percentage death rate), Leptinot D. [1] [%] | percentage of reduction of the infestation (percentage death rate), Macrosiph. E. (Macrosiphum euphorbiae) [%] | percentage of reduction of the infestation (percentage of mortality), Tetran U. (Tetranychus urticae) [%] | percentage of reduction of the infestation, Meloidog. I. (Meloidogyne incognita) [%] | mortality at 0.1 g/m2 (Blatta orientalis) [%] | LD50 (Toxicity by os on rats) [mg/kg] | activity against Spodoptera, Culex, Musca, Leptinotarsa, Meloidogine incognita ([2]; Spodoptera, Culex, Musca, Leptinotarsa, Meloidogine incognita) | activity against insects, acari and nematoda ([2]; in vivo) |
| --- | --- | --- | --- | --- | --- | --- | --- | --- | --- | --- | --- | --- | --- |
| COP(=S)(OC)Oc1cc(Cl)nn1-c1ccccc1 [Compound 1, O,O-dimethyl-0-(1-phenyl-3-chloropyrazol-5-yl) thiophosphate] | 100 | 100 | 100 | 100 | 100 | 100 | 90 | 60 | 80 | 100 | 400 |  |  |
| COP(=S)(OC)Oc1cc(Cl)nn1C(C)C [Compound 4] |  | 80 | 100 | 100 | 100 | 100 | 94 | 80 |  | 100 | 1100 |  |  |
| CCOP(=S)(OCC)Oc1cc(Cl)nn1C(C)C [Compound 5] | 100 | 60 | 100 | 100 | 100 | 100 | 100 | 100 | 90 | 100 | 22 |  |  |
| CCOP(=S)(OCC)Oc1cc(C=C(Cl)Cl)nn1C [Compound 6] | 100 | 100 | 100 | 76 | 100 | 100 | 100 | 100 | 95 | 100 | 175 |  |  |
| CCOP(=S)(OCC)Oc1cc(Cl)nn1C [Compound 13] | 100 | 100 | 100 | 100 | 100 | 100 | 99 | 100 | 100 | 100 | 25 |  |  |
| COP(=S)(OC)Oc1cc(Cl)nn1C [Compound 14] | 100 | 82 | 100 | 100 | 100 | 37 | 96 | 100 | 41 | 100 | 560 |  |  |
| CCOP(=S)(OC)Oc1cc(Cl)nn1C (stereo not drawn) [Compound 23] | 100 | 100 | 100 | 100 | 100 | 100 | 92 | 100 | 100 | 100 | 487 |  |  |
| CCOP(=S)(OC)Oc1cc(Cl)nn1-c1ccccc1 (stereo not drawn) [Compound 37] | 100 | 100 | 100 | 100 | 100 | 100 | 48 | 0 | 47 | 100 | 320 |  |  |
| CCOP(=S)(OCC)Oc1cc(C)[nH]n1 [Pyrazothion, diethyl-thiophosphoric ester of 3(5)-methyl-5(3)-hydroxypyrazole, reference compound] | 70 | 0 | 0 | 0 | 0 | 0 | 60 | 90 | 0 | 20 | 36 | ineffective | does not shown activity |
